Experimental data taken from ChEMBL document CHEMBL2074252, “The specific bisindolylmaleimide PKC-inhibitor GF 109203X efficiently modulates MRP-associated multiple drug resistance” (Biochem Biophys Res Commun, 1995).

Target: Multidrug resistance-associated protein 1 (Homo sapiens, UniProt P33527)
Assay: TP_TRANSPORTER: inhibition of Rhodamine 123 efflux (R123: 0.8 ug/mL, GF109203X: 10 uM) in HL60/AR cells
Assay type: functional, cell-based

Multidrug resistance-associated protein 1, sequence (P33527 whole entry): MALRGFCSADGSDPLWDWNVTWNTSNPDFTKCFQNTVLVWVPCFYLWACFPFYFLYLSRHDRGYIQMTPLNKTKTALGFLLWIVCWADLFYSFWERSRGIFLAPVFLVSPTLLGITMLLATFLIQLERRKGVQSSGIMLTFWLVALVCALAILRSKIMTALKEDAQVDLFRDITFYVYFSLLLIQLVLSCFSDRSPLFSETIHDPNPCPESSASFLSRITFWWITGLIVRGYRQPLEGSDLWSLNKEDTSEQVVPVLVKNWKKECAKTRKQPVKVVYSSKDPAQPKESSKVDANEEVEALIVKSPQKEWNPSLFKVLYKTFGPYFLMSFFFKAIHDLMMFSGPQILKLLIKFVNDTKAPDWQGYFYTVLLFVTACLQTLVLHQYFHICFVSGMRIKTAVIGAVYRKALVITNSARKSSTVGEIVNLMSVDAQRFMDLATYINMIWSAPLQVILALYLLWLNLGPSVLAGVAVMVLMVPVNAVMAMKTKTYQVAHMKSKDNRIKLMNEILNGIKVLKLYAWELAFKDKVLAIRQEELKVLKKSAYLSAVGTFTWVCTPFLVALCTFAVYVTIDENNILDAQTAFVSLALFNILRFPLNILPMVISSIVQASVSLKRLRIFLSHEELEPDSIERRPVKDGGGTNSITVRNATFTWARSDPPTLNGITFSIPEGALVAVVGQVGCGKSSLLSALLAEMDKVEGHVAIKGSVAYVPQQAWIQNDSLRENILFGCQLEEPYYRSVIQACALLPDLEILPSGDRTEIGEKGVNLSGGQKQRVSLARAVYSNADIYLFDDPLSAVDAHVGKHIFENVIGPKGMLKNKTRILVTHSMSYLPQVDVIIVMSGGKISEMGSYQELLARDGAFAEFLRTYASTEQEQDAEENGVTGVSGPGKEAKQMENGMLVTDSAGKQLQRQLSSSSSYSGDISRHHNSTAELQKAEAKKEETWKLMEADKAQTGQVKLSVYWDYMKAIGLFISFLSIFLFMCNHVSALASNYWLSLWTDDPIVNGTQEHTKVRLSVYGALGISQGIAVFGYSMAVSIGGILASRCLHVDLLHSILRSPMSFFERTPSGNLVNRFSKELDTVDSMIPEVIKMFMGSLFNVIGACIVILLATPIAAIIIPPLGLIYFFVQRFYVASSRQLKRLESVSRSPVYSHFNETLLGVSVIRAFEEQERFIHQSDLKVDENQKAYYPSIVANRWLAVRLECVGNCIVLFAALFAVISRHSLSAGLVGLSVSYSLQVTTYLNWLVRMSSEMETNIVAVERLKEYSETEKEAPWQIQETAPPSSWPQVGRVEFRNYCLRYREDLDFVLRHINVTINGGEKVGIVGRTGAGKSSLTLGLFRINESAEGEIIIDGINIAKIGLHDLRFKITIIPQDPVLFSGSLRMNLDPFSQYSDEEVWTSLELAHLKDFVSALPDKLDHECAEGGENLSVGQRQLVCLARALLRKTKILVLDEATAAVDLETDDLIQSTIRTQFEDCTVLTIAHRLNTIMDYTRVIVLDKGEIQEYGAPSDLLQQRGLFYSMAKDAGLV

Q: Which Activity does the source give for CN(C)CCCn1cc(C2=C(c3c[nH]c4ccccc34)C(=O)NC2=O)c2ccccc21 [GF-109203] here?
A: Its Activity is “inhibitor [+]”.
